ChEMBL document CHEMBL3885881, “DrugMatrix”

Species on record: Rattus norvegicus
Assay: DrugMatrix - Regimen: Daily Repeat
Type: toxicity, organism-based, Sprague-Dawley
Set-up: regimen Daily Repeat, gender Male, age 6-8 weeks
Details: in vivo, po, route oral GAVAGE, vehicle .5 % CMC; for ABSOLUTE BASOPHIL / ABSOLUTE EOSINOPHIL / ABSOLUTE LYMPHOCYTE / ABSOLUTE MONOCYTE / ABSOLUTE SEGMENTED NEUTROPHIL / BASOPHIL / EOSINOPHIL / ERYTHROCYTE COUNT / HEMATOCRIT / HEMOGLOBIN / LEUKOCYTE COUNT / LYMPHOCYTE / MEAN CORPUSCULAR HEMOGLOBIN / MEAN CORPUSCULAR HEMOGLOBIN CONCENTRATION / MEAN CORPUSCULAR VOLUME / MONOCYTE / NEUTROPHIL / NUCLEATED RED BLOOD CELLS / PLATELET COUNT: tissue Blood; for ALANINE AMINOTRANSFERASE / ALBUMIN / ALKALINE PHOSPHATASE / ASPARTATE AMINOTRANSFERASE / BLOOD UREA NITROGEN / CARBON DIOXIDE / CHLORIDE / CHOLESTEROL / CREATINE PHOSPHOKINASE / CREATININE / GLUCOSE / LACTATE DEHYDROGENASE / LIPASE / PHOSPHORUS / POTASSIUM / SODIUM / TOTAL BILIRUBIN / TOTAL PROTEIN / URIC ACID: tissue Plasma
[1] = 385.5 mg/kg, 120 h, dose level Low, time 5 day
[2] = 3855 mg/kg, 72 h, dose level High, time 3 day
[3] = 3855 mg/kg, 120 h, dose level High, time 5 day

Which results are given for `Cn1c(=O)c2c(ncn2CC(O)CO)n(C)c1=O` (centres undefined) [DYPHYLLINE]?
ABSOLUTE BASOPHIL [1]: 0 CELLS/uL; ABSOLUTE EOSINOPHIL [1]: 0 CELLS/uL; ABSOLUTE LYMPHOCYTE [1]: 14849.33 CELLS/uL; ABSOLUTE MONOCYTE [1]: 268.33 CELLS/uL; ABSOLUTE SEGMENTED NEUTROPHIL [1]: 1249 CELLS/uL; BASOPHIL [1]: 0%; EOSINOPHIL [1]: 0%; ERYTHROCYTE COUNT [1]: 5.2 x10E6/uL; HEMATOCRIT [1]: 34.47%; HEMOGLOBIN [1]: 13.7 G/DL; LEUKOCYTE COUNT [1]: 16.37 x10E3/uL; LYMPHOCYTE [1]: 90.67%; MEAN CORPUSCULAR HEMOGLOBIN [1]: 26.37 pg; MEAN CORPUSCULAR HEMOGLOBIN CONCENTRATION [1]: 39.77 G/DL; MEAN CORPUSCULAR VOLUME [1]: 66.3 fL; MONOCYTE [1]: 1.67%; NEUTROPHIL [1]: 7.67%; NUCLEATED RED BLOOD CELLS [1]: 0.33 /100WBC; PLATELET COUNT [1]: 1326 x10E3/uL; ALANINE AMINOTRANSFERASE [1]: 46.67 u/L; ALBUMIN [1]: 4.3 G/DL; ALKALINE PHOSPHATASE [1]: 287 u/L; ASPARTATE AMINOTRANSFERASE [1]: 70.67 u/L; BLOOD UREA NITROGEN [1]: 18.67 mg/dL; CARBON DIOXIDE [1]: 25.33 mmol/L; CHLORIDE [1]: 102.67 MEQ/L; CHOLESTEROL [1]: 75.33 mg/dL; CREATINE PHOSPHOKINASE [1]: 172.67 u/L; CREATININE [1]: 0.18 mg/dL; GLUCOSE [1]: 155 mg/dL; LACTATE DEHYDROGENASE [1]: 103.33 u/L; LIPASE [1]: 10 u/L; PHOSPHORUS [1]: 13.33 mg/dL; POTASSIUM [1]: 6.61 MEQ/L; SODIUM [1]: 146.27 MEQ/L; TOTAL BILIRUBIN [1]: 0.2 mg/dL; TOTAL PROTEIN [1]: 5.93 G/DL; URIC ACID [1]: 1.33 mg/dL; ABSOLUTE BASOPHIL [2]: 0 CELLS/uL; ABSOLUTE EOSINOPHIL [2]: 0 CELLS/uL; ABSOLUTE LYMPHOCYTE [2]: 16214.67 CELLS/uL; ABSOLUTE MONOCYTE [2]: 399.33 CELLS/uL; ABSOLUTE SEGMENTED NEUTROPHIL [2]: 2086 CELLS/uL; BASOPHIL [2]: 0%; EOSINOPHIL [2]: 0%; ERYTHROCYTE COUNT [2]: 5.33 x10E6/uL; HEMATOCRIT [2]: 33.37%; HEMOGLOBIN [2]: 13.57 G/DL; LEUKOCYTE COUNT [2]: 18.7 x10E3/uL; LYMPHOCYTE [2]: 87%; MEAN CORPUSCULAR HEMOGLOBIN [2]: 25.5 pg; MEAN CORPUSCULAR HEMOGLOBIN CONCENTRATION [2]: 40.67 G/DL; MEAN CORPUSCULAR VOLUME [2]: 62.63 fL; MONOCYTE [2]: 2%; NEUTROPHIL [2]: 11%; NUCLEATED RED BLOOD CELLS [2]: 0 /100WBC; PLATELET COUNT [2]: 1235.67 x10E3/uL; ALANINE AMINOTRANSFERASE [2]: 63.67 u/L; ALBUMIN [2]: 4.37 G/DL; ALKALINE PHOSPHATASE [2]: 376 u/L; ASPARTATE AMINOTRANSFERASE [2]: 102 u/L; BLOOD UREA NITROGEN [2]: 14 mg/dL; CARBON DIOXIDE [2]: 25.67 mmol/L; CHLORIDE [2]: 103.33 MEQ/L; CHOLESTEROL [2]: 72 mg/dL; CREATINE PHOSPHOKINASE [2]: 224.33 u/L; CREATININE [2]: 0.18 mg/dL; GLUCOSE [2]: 169.33 mg/dL; LACTATE DEHYDROGENASE [2]: 157.67 u/L; LIPASE [2]: 10 u/L; PHOSPHORUS [2]: 11.3 mg/dL; POTASSIUM [2]: 6.13 MEQ/L; SODIUM [2]: 145.4 MEQ/L; TOTAL BILIRUBIN [2]: 0.17 mg/dL; TOTAL PROTEIN [2]: 5.77 G/DL; URIC ACID [2]: 1.27 mg/dL; ABSOLUTE BASOPHIL [3]: 0 CELLS/uL; ABSOLUTE EOSINOPHIL [3]: 169.33 CELLS/uL; ABSOLUTE LYMPHOCYTE [3]: 15268 CELLS/uL; ABSOLUTE MONOCYTE [3]: 115.33 CELLS/uL; ABSOLUTE SEGMENTED NEUTROPHIL [3]: 1780.67 CELLS/uL; BASOPHIL [3]: 0%; EOSINOPHIL [3]: 1%; ERYTHROCYTE COUNT [3]: 5.34 x10E6/uL; HEMATOCRIT [3]: 34.57%; HEMOGLOBIN [3]: 13.7 G/DL; LEUKOCYTE COUNT [3]: 17.33 x10E3/uL; LYMPHOCYTE [3]: 88%; MEAN CORPUSCULAR HEMOGLOBIN [3]: 25.67 pg; MEAN CORPUSCULAR HEMOGLOBIN CONCENTRATION [3]: 39.63 G/DL; MEAN CORPUSCULAR VOLUME [3]: 64.77 fL; MONOCYTE [3]: 0.67%; NEUTROPHIL [3]: 10.33%; NUCLEATED RED BLOOD CELLS [3]: 0.33 /100WBC; PLATELET COUNT [3]: 1356 x10E3/uL; ALANINE AMINOTRANSFERASE [3]: 67.33 u/L; ALBUMIN [3]: 4.23 G/DL; ALKALINE PHOSPHATASE [3]: 246 u/L; ASPARTATE AMINOTRANSFERASE [3]: 85.67 u/L; BLOOD UREA NITROGEN [3]: 17 mg/dL; CARBON DIOXIDE [3]: 26.33 mmol/L; CHLORIDE [3]: 102.33 MEQ/L; CHOLESTEROL [3]: 58.67 mg/dL; CREATINE PHOSPHOKINASE [3]: 184.33 u/L; CREATININE [3]: 0.16 mg/dL; GLUCOSE [3]: 150.67 mg/dL; LACTATE DEHYDROGENASE [3]: 98.67 u/L; LIPASE [3]: 10 u/L; PHOSPHORUS [3]: 11.47 mg/dL; POTASSIUM [3]: 6.42 MEQ/L; SODIUM [3]: 144.77 MEQ/L; TOTAL BILIRUBIN [3]: 0.2 mg/dL; TOTAL PROTEIN [3]: 5.77 G/DL; URIC ACID [3]: 1 mg/dL
